Values after ≈ are worked out from the molar mass of the structure shown. Results filed as inconclusive are left out. Active and inactive are the calls of the source. How the calls were made is not given here.
The molecules below were run on M. tuberculosis H37Rv growth inhibition (assay: Confirmatory growth inhibition assay against Mycobacterium tuberculosis H37Rv, potency (AID 1949);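 further: bacteria grown 7 days with compound before Alamar blue readout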).

Compound | IC50
NC(=O)COc1ccc(C23CC4CC(CC(C4)C2)C3)cc1 | 19.7 µg/mL (≈ 69.2 µM)
O=C(COc1ccc(-c2ccccc2)cc1)OC1CCCCC1 | 0.65 µg/mL (≈ 2.09 µM)
CCOC(=O)c1cc(-c2ccccc2)sc1NC(=S)NC1CCN(Cc2ccccc2)CC1 | 0.77 µg/mL (≈ 1.61 µM)
Cc1ccc(Nc2ccc(-n3ccnc3)nn2)cc1Cl | 2.67 µg/mL (≈ 9.34 µM)
c1ccc(CN2CCN(CCCOc3cccc4ccccc34)CC2)cc1 | 4.68 µg/mL (≈ 13 µM)
COc1ccccc1C(=O)NNC(=S)NC(=O)c1ccc(-c2ccccc2)cc1 | < 0.1 µg/mL
CC(=O)Oc1cccc2ccc(/C=C/c3cccs3)nc12 | 1.14 µg/mL (≈ 3.86 µM)
Cc1cccc(OCCn2c(NC(=O)c3ccco3)nc3ccccc32)c1 | 2.87 µg/mL (≈ 7.94 µM)
C=C1C2(C(=O)Nc3nc4ccc(Br)cc4s3)CCC(C2)C1(C)C (configuration not stated) | 11.4 µg/mL (≈ 29.1 µM)
COc1ccc(-c2csc(Nc3ccc(S(N)(=O)=O)cc3)n2)cc1 | 3.73 µg/mL (≈ 10.3 µM)
CCN(CC)c1ncnc2c1sc1nc(C)cc(C)c12 | > 50 µg/mL (inactive)
O=C(CC12CC3CC(CC(C3)C1)C2)Nc1cccc(Cl)c1 | 3.34 µg/mL (≈ 11 µM)
Cc1cccc(OC(C)C(=O)Nc2ccc([N+](=O)[O-])cc2)c1C (configuration not stated) | 3.13 µg/mL (≈ 9.96 µM)
CCC(=O)Oc1cccc2ccc(/C=C/c3ccc4c(c3)OCO4)nc12 | 0.17 µg/mL (≈ 0.489 µM)
COc1ccccc1NC(=O)c1cnc(SC)nc1 | 3.97 µg/mL (≈ 14.4 µM)
Cc1cccc(Nc2cc(Cl)c3nonc3c2[N+](=O)[O-])c1C | 1.28 µg/mL (≈ 4.02 µM)
CN1CCN(c2ccc(NC(=O)c3ccc(-c4ccc(Cl)cc4)o3)cc2)CC1 | 38 µg/mL (≈ 96 µM)
CC(C)(C)c1ccc(C(=O)N2CCC(C(=O)N3CCN(c4cccc(Cl)c4)CC3)CC2)cc1 | > 50 µg/mL (inactive)
COc1cccc(-n2nnnc2S(=O)(=O)Cc2ccccc2)c1 | 0.38 µg/mL (≈ 1.15 µM)
COc1cccc(CN2CCC(N(CCc3ccccc3)Cc3ccccc3)CC2)c1OC | 6.32 µg/mL (≈ 14.2 µM)
CCC(C)Oc1ccc(C(=O)NC(=S)Nc2ccc3c(c2)COC3=O)cc1 (configuration not stated) | 0.55 µg/mL (≈ 1.43 µM)
CCOc1cccc2cc(-c3nc4ccc(C)cc4[nH]3)c(=O)oc12 | < 0.1 µg/mL
CC(NCc1cccc(OCc2ccccc2)c1)C(O)c1ccccc1 (configuration not stated) | 5.53 µg/mL (≈ 15.9 µM)
CCn1nnc(NC(=O)c2sc3ccccc3c2Cl)n1 | 3.02 µg/mL (≈ 9.81 µM)

Compound | IC50
O=C(Nc1ccc(Cl)cc1)c1cc([N+](=O)[O-])ccc1O | 17.7 µg/mL (≈ 60.6 µM)
COc1ccc(Nc2cc(C)nc3c2ccc2ccccc23)cc1 | 1.62 µg/mL (≈ 5.15 µM)
O=C(Nc1ccc2oc(-c3cccc4ccccc34)nc2c1)c1cncc(Br)c1 | 2.72 µg/mL (≈ 6.12 µM)
O=Cc1ccc(Sc2nnc(-c3ccccc3)o2)o1 | 3.39 µg/mL (≈ 12.5 µM)
CCOC(=O)C1=CN(C(C)C)C=C(C(=O)OCC)C1c1cc(OC)ccc1OC | > 50 µg/mL (inactive)
CCOC(=O)c1ccc(COC(=O)c2cccc([N+](=O)[O-])c2)cc1 | 1.11 µg/mL (≈ 3.37 µM)
COc1ccc(C2(C(=O)Nc3ccc(Br)cc3)CCCC2)cc1 | 1.37 µg/mL (≈ 3.66 µM)
C/C(=N/N=C1\NC(=O)C(Cc2ccc(Cl)cc2)S1)c1ccc(F)cc1 (configuration not stated) | 19 µg/mL (≈ 50.6 µM)
COc1ccc(S(=O)(=O)Nc2cc(Sc3ccccc3)c(O)c3ccccc23)cc1 | 5.29 µg/mL (≈ 12.1 µM)
Cc1nn2c3ccc(N)cc3nc2c2ccccc12 | 17.5 µg/mL (≈ 70.6 µM)
O=[N+]([O-])c1ccccc1C1Nc2ccc(Cl)cc2C2C=CCC21 (configuration not stated) | 10.5 µg/mL (≈ 32.3 µM)
CN(C)c1ccc(Nc2nc(-c3ccccn3)cs2)cc1 | 0.74 µg/mL (≈ 2.5 µM)
OC(COc1ccccc1Cl)CN1CCN(C(c2ccccc2)c2ccccc2)CC1 (configuration not stated) | 2.51 µg/mL (≈ 5.74 µM)
CC1(C)Cc2c(sc3nc(SCC(=O)Nc4ccc(Br)cc4)nc(N)c23)CS1 | 6.22 µg/mL (≈ 12.6 µM)
CCCCOc1ccc(C2c3c(oc4ccc(Br)cc4c3=O)C(=O)N2CCCN2CCOCC2)cc1 (configuration not stated) | 3.77 µg/mL (≈ 6.79 µM)
CN(Cc1ccccc1)C(=S)NC(=O)c1cccs1 | 0.74 µg/mL (≈ 2.55 µM)
CCOC(=O)c1c(C)n(Cc2ccccc2)c2ccc(OCC(O)CNC(C)(C)C)cc12 (configuration not stated) | 4.28 µg/mL (≈ 9.76 µM)
CN(C)c1ccc(C(O)(c2ccc(N(C)C)cc2)c2ccc(N(C)C)cc2)cc1 | 0.6 µg/mL (≈ 1.54 µM)
COc1ccc(CCCC(=O)Nc2ccc(Cl)c(Cl)c2)c(C)c1 | 8.81 µg/mL (≈ 25 µM)
COc1cc(CNC(C)c2ccccc2)cc(Br)c1OCc1ccccc1 (configuration not stated) | 6.21 µg/mL (≈ 14.6 µM)
Cc1ccc2nc(/C(C#N)=C\c3c[nH]c4ccc(Br)cc34)[nH]c2c1 | 0.62 µg/mL (≈ 1.64 µM)
COc1ccc(NC(=O)C(Cc2c[nH]c3ccccc23)NC(C)=O)cc1 (configuration not stated) | 3.08 µg/mL (≈ 8.76 µM)
C=CS(=O)c1sc(Cl)c(N2CCOCC2)c1[N+](=O)[O-] (configuration not stated) | 5.77 µg/mL (≈ 17.9 µM)
CC(C)(C)c1cc(Cl)ccc1OCCn1ccnc1 | 1.94 µg/mL (≈ 6.96 µM)

Compound | IC50
CCOC(=O)C1=C(C)N(c2ccc(Br)cc2)C(=O)C1 | 3.23 µg/mL (≈ 9.96 µM)
CC(=O)c1c(C)nc(-c2ccc(Cl)c(Cl)c2)n1O | 17.4 µg/mL (≈ 60.9 µM)
CCOc1ccc(NC(=S)Nc2ccc3nsnc3c2)cc1 | 0.52 µg/mL (≈ 1.57 µM)
COc1ccccc1-n1c(=O)oc2ccc(Cl)cc2c1=O | 4.95 µg/mL (≈ 16.3 µM)
C=CCCCCCCCCC(=O)Nc1ccccc1C | 8.62 µg/mL (≈ 31.5 µM)
Cc1cc2ncn(CCOc3ccccc3C)c2cc1C | 6.93 µg/mL (≈ 24.7 µM)
COC(=O)c1ccc2nc(C)cc(Nc3ccc(OCc4ccccc4)cc3)c2c1 | 1.2 µg/mL (≈ 3.01 µM)
CCN1CCN(c2ccc(NC(=O)c3cc4ccccc4cc3OC)cc2Cl)CC1 | 23.9 µg/mL (≈ 56.5 µM)
COC(=O)CSc1nc(N2CCCCC2)c2c(c1C#N)CCCC2 | 0.17 µg/mL (≈ 0.492 µM)
CCOC(=O)N1CCN(CC(O)COc2ccc(C3CCCCC3)cc2)CC1 (configuration not stated) | 3.69 µg/mL (≈ 9.45 µM)
CCOC(=O)C1=C(C)N=c2s/c(=C\c3ccc([N+](=O)[O-])o3)c(=O)n2C1c1ccc(OCC)cc1 (configuration not stated) | > 50 µg/mL (inactive)
Cc1ccc(C(=O)NC(=S)Nc2ccc(S(=O)(=O)NC(C)C)cc2)cc1Br | 3.75 µg/mL (≈ 7.97 µM)
CC(C)(C)c1ccc(OCCCNCc2ccccc2)cc1 | 4.84 µg/mL (≈ 16.3 µM)
CCC(=O)NC(=S)Nc1ccc(NC(=O)c2cc(I)ccc2Cl)cc1 | 0.43 µg/mL (≈ 0.882 µM)
O=C(Nc1nccs1)c1ccc(CSc2ccccc2)o1 | 3.09 µg/mL (≈ 9.77 µM)
Cc1cc(C)nc(/N=C(\N)Nc2ccccc2Sc2ccccc2)n1 | > 50 µg/mL (inactive)
N#Cc1c(NC(=S)NC(=O)c2ccc(Cl)cc2Cl)sc2c1CCCCC2 | 3.36 µg/mL (≈ 7.92 µM)
CCCCc1ccc(N/C(N)=N\c2nc(C)cc(C)n2)cc1 | 23.3 µg/mL (≈ 78.2 µM)
Cc1cc(C)cc(OCC(=O)Nc2ccc3oc(-c4ccc(F)cc4)nc3c2)c1 | > 50 µg/mL (inactive)
COc1ccc(NC(=O)c2ccccc2Oc2ccccc2)c(OC)c1 | < 0.1 µg/mL
O=C(CCSc1ccc(Cl)cc1)Nc1ccc(F)c(Cl)c1 | 4.06 µg/mL (≈ 11.8 µM)
Cc1ccc(NC(=O)c2ccc(N3CCN(C)CC3)c([N+](=O)[O-])c2)cc1Cl | 2.22 µg/mL (≈ 5.71 µM)
C#CCSc1nnc(-c2ccc(Br)cc2)o1 | 0.94 µg/mL (≈ 3.18 µM)
CCS(=O)(=O)c1nnnn1-c1ccccc1F | > 50 µg/mL (inactive)

Compound | IC50
CC1(C)C=Cc2c(nc3ccccc3c2NCc2ccccc2)C1 | 1.47 µg/mL (≈ 4.68 µM)
Cc1ccc(OCC(=O)c2ccc(C)cc2)cc1 | 50 µg/mL (≈ 208 µM)
Clc1ccc(OCCn2ccnc2)c2ccccc12 | 3.99 µg/mL (≈ 14.6 µM)
Cc1cc(Br)c2[nH]c(O)c(N=NC(=O)COc3ccc4ccccc4c3)c2c1 | 12 µg/mL (≈ 27.5 µM)
Cc1cccc(OCCn2cnc3cc(C)c(C)cc32)c1 | 4.52 µg/mL (≈ 16.1 µM)
CCN(CC)c1ccc(NC(=S)Nc2ccc(F)c(Cl)c2)cc1 | 7.64 µg/mL (≈ 21.7 µM)
COc1cc(/C=C/[N+](=O)[O-])cc(Cl)c1OCc1ccccc1C#N | 17.9 µg/mL (≈ 51.8 µM)
CSc1nsc(SCC(=O)c2ccccc2)n1 | 4.45 µg/mL (≈ 15.8 µM)
Cc1cc(OCC(=O)NC2C3CC4CC(C3)CC2C4)cc(C)c1Br (configuration not stated) | 1.45 µg/mL (≈ 3.7 µM)
CC1CCCN(CCC(=O)c2ccc(Br)cc2)C1 (configuration not stated) | 2.8 µg/mL (≈ 9.03 µM)
CCOC(=O)c1sc(NC(=S)NC2CCN(Cc3ccccc3)CC2)c(C(=O)OCC)c1C | > 50 µg/mL (inactive)
Cc1ccc(C(=O)N2CCN(c3ccc(NC(=O)COc4ccccc4Cl)cc3)CC2)cc1 | 6.08 µg/mL (≈ 13.1 µM)
O=C(CC1CCCCC1)c1c(O)c2ccccc2oc1=O | > 50 µg/mL (inactive)
O=C(/C=C/c1cccc(C(F)(F)F)c1)Nc1cccc(Br)c1 | 1.39 µg/mL (≈ 3.76 µM)
Clc1ccc(OCCCCn2ccnc2)cc1Cl | 2.01 µg/mL (≈ 7.05 µM)
O=C(c1cccc(Cl)c1)N1N=C(c2ccc(Cl)cc2)CC1(O)C(F)(F)F (configuration not stated) | 3.82 µg/mL (≈ 9.47 µM)
CC1(C)COC(/C=C/c2cccc([N+](=O)[O-])c2)=N1 | 11.6 µg/mL (≈ 47.1 µM)
COc1ccc(C(=O)C(CN2CCCCC2)c2ccccc2)cc1 (configuration not stated) | 3.15 µg/mL (≈ 9.74 µM)
COC(=O)c1sc(NC(=O)c2c(F)c(F)c(F)c(F)c2F)c(C(N)=O)c1C | < 0.1 µg/mL
C=CCn1c(-c2cccs2)nc2ccccc21 | 1.86 µg/mL (≈ 7.74 µM)
COc1ccc(CN2CCC(N(CCc3ccccc3)Cc3ccccc3)CC2)c(OC)c1 | 2.61 µg/mL (≈ 5.87 µM)
Cc1ccc2oc(-c3cc(NC(=O)Cc4ccccc4)ccc3Cl)nc2c1 | < 0.1 µg/mL
CC(NC(=O)NNC(=O)c1ccncc1)(C(F)(F)F)C(F)(F)F | 0.18 µg/mL (≈ 0.523 µM)
CCOC(=O)c1c2c(n(C)c1CN(CC)CC)C(=O)C(=O)c1ccc(Br)cc1-2 | 0.17 µg/mL (≈ 0.38 µM)

Compound | IC50
CCOC(=O)COc1ccc(S(=O)(=O)Nc2cccc(SC)c2)cc1 | 3.69 µg/mL (≈ 9.67 µM)
c1ccc2nc3c(nc2c1)Nn1cnnc1S3 | > 50 µg/mL (inactive)
CCc1ccc(-c2nn(-c3ccccc3)cc2CO)cc1 | 5.36 µg/mL (≈ 19.3 µM)
Cc1nn(-c2ccccc2)c(C)c1N1C(=O)c2cccc3cc([N+](=O)[O-])cc(c23)C1=O | 0.15 µg/mL (≈ 0.364 µM)
CC(C(=O)Oc1cccc2cccnc12)N1C(=O)c2ccccc2C1=O (configuration not stated) | 4.4 µg/mL (≈ 12.7 µM)
Cc1ccc(NC(=S)c2ccccn2)c(C)c1 | 4.22 µg/mL (≈ 17.4 µM)
O=C(O)c1ccc(C2Nc3ccc([N+](=O)[O-])cc3C3c4ccccc4CC23)cc1 (configuration not stated) | > 50 µg/mL (inactive)
O=C(Nc1ccc(Nc2ccccc2)cc1)C(Cl)Cl | 6.79 µg/mL (≈ 23 µM)
CCC(C)c1ccc(O)c(NC(=S)NC(=O)c2ccc(-c3ccc(Cl)cc3)o2)c1 (configuration not stated) | < 0.1 µg/mL
O=c1oc(-c2ccccc2Br)nc2sc3c(c12)CCCC3 | 0.98 µg/mL (≈ 2.71 µM)
Cc1ccc(Cl)cc1N1CCN(CC(O)COC2CC(C)CC(C)(C)C2)CC1 (configuration not stated) | 7.82 µg/mL (≈ 19.1 µM)
COc1ccc(NC(=O)c2ccc(C#CC(C)(C)O)s2)cc1 | 0.31 µg/mL (≈ 0.983 µM)
CC(=O)c1ccc(COC(=O)c2ccc([N+](=O)[O-])cc2Cl)cc1 | 40.7 µg/mL (≈ 122 µM)
COC(=O)COc1ccc2c(=O)c(-c3ccccc3Cl)coc2c1 | 0.4 µg/mL (≈ 1.16 µM)
Cc1ccc(C(=O)Nc2ccc([N+](=O)[O-])cc2C)cc1I | < 0.1 µg/mL
O=C(Oc1cccc2cccnc12)c1ccc(S(=O)(=O)N2CCCCC2)cc1 | 1.48 µg/mL (≈ 3.73 µM)
COc1ccc(OC)c(NC(=O)Nc2ccc(Cl)c(C(F)(F)F)c2)c1 | 1.72 µg/mL (≈ 4.59 µM)
O=C(CCc1ccccc1)NC1C2CC3CC(C2)CC1C3 (configuration not stated) | 3.08 µg/mL (≈ 10.9 µM)
COc1cc(NC(=O)c2ccc(Br)o2)ccc1NC(=O)c1ccccc1Cl | 6.8 µg/mL (≈ 15.1 µM)
CC(C)C(=O)Nc1ccc(C(=O)Oc2ccccc2)c(O)c1 | < 0.1 µg/mL
O=C(NC(Nc1cccc([N+](=O)[O-])c1)C(Cl)(Cl)Cl)c1cccc(I)c1 (configuration not stated) | 11.7 µg/mL (≈ 22.8 µM)

From PubChem BioAssay AID1949 (Southern Research Institute, 2009)
